For seven compounds, inhibition and IC50 results are on record in patent US5019573A, “Substituted dibenzofurans and methods of using same” (Euroceltique, S.A., priority 1989, dated 1991).

Test [1] concerns LTB4-induced degranulation of purified human neutrophils. In words: LTB4-induced neutrophil degranulation (myeloperoxidase release). It is filed as cell-based. To be noted: LTB4-induced MPO release; for inhibition at 30 µM: read-out: LTB-Induced Neutrophil Degranulation % Inhibition at 30 uM; for IC50: concentration-response, read-out: LTB-Induced Neutrophil Degranulation I50. On the procedure:
(§1) Each compound was tested in two in vitro models of LTB4 induced cell function. The cellular responses measured are presumed to be mediated via specific interactions of LTB4 with cellular receptors.
(§2) The cellular responses studied include 1) LTB4 -induced degranulation (release of myeloperoxidase) from purified human neutrophils and 2) LTB4 -induced adhesion of human neutrophils to latex beads. Each putative antagonist was tested at 30 uM for its effect on each response. Selected compounds were tested in a concentration-response fashion.
(1) Neutrophil Degranulation Assay
Neutrophils are isolated from human venous blood via a twostep sedimentation procedure, and contaminating erythrocytes are selectively lysed. The neutrophils were preincubated in 0.25% Hanks buffer containing bovine serum albumin (BSA) with 5 ug Cytochalasin B/ml cells for 5 minutes at 37° C. Neutrophils (4×10^6) are added to stimuli (LTB4 or buffer control) in the presence and absence of antagonist in Krebs-Ringer buffer to a final volume of 1.0 ml, and incubated at 37° C. for appropriate periods of time. At the end of the reaction period the neutrophils are pelleted by centrifugation at 3000 rpm for 5 minutes at 4° C.
Aliquots (0.2 ml) of the supernatants are added to polystyrene tubes to which are added the following: 0.6 ml )>25% Hanks BSA, 0.5 ml MPO buffer (0.2 M NaPO4, pH 6.2) and to start the color reaction 0.2 ml of a 1:1 v/v 0.05% H2 O2 :1.25 mg/ml dimethoxybenzidine (DMB). The reaction is allowed to run at room temperature for 15 minutes and is stopped by the addition of 0.05 ml 2% sodium azide. The developed color is quantitated in a spectrophotometer at 460 nm. The amount of myeloperoxidase (MPO) released by LTB4 stimulation can thus be determined. In order to determine the total amount of MPO in the cells an unstimulated control tube of neutrophils is lysed using 0.01 ml 10% Triton TX and the total MPO is determined via the color reaction and spectrophotometer reading. The activity of a given concentration of LTB4 is expressed as the percentage of the total MPO released. The activity of antagonists at a given concentration is expressed as a percentage of inhibiton of LTB4 -induced MPO release at a single concentration cf LTB4.

Test [2] deals with LTB4-induced adhesion of human neutrophils to latex beads. As to the kind of experiment: LTB4-induced neutrophil latex bead adhesion. The class given is cell-based. Particulars: albumin-coated latex beads, read-out: LTB-Induced Neutrophil Bead Adhesion % Inhibition at 30 uM. As to the method:
as §1, §2
(2) Neutrophil Latex Bead Adhesion
Latex bead suspension (0.6 ml; 10% aqueous suspension; particle diameter=1u) is pipeted into a 1.5 ml eppendorf centrifuge tube. The beads are pelleted by centrifugation, the supernatant is discarded and the beads are washed 2 times with 1 ml 0.9% saline. To the pelleted beads is added 0.5 ml saline and 0.5 ml 20 mg/ml human serum albumin (HSA) in Krebs-Ringer buffer. Allow bead-albumin mixture to sit at room temperature for 10 minutes, centrifuge for 1 minute and remove the supernatant, and wash albumin-coated beads 3 times with saline. Resuspend the beads in 1 ml of Krebs-Ringer.
Human neutrophils are prepared as described for the neutrophil degranulation assay and 10^7 cells are added to 0.3 ml of Krebs-Ringerin the presence and absence of LTB4 and putative antagonist and are incubated at 37° for an appropriate period of time.
The albumin-coated beads are then added in 0.05 ml to give a final bead concentration of 1% v/v, resulting in a bead to neutrophil ratio of 100:1. The tubes containing cells and beads are then placed in an agitating water bath at 37° C. and 120 oscillation per minute for 10 minutes. The reaction is stopped by adding an equal volume of 2.5% gluteraldehyde in saline. The reaction tubes are allowed to stand at room temperature for 30 minutes. The cells are then washed 3 times (with centrifugation at 1000 rpm for 5 minutes) with saline to remove the unadhered latex beads and resuspended in 0.3 ml saline.
Wet mounts are prepared and adherence is examined by light microscopy at 400x. Adherence is scored by counting five randomly placed fields of at least 50 neutrophils per field. […] Activity of the antagonists is expressed as the percent inhibition of LTB4 induced adherence.

As to `O=C(O)CC(O)c1ccc2oc3ccc(C(O)Cc4ccccc4)cc3c2c1` (centres unmarked) [Compound 11, 3-[2-[8-(1-Hydroxy)-2-phenylethyl]dibenzofuranyl]-3-hydroxypropionic Acid], the inhibition (commonly the share of the control response that was lost under treatment) at 30 µM was determined as 35% in test [1] and 7% in test [2].

As for `CN(C)C(=O)CC(O)c1ccc2oc3ccc(C(O)Cc4ccccc4)cc3c2c1` (centres unmarked) [Compound 12, N,N-Dimethyl-3-[2-[8-(1-hydroxy)-2-phenylethyl]dibenzofuranyl]-3-hydroxypropanamide], in test [1], the inhibition at 30 µM was found to be 100% and the IC50 was found to be 13 µM. In addition, the inhibition at 30 µM in test [2] worked out at 14%.

`CN(C)C(=O)CCC(O)c1ccc2oc3ccc(C(O)Cc4ccccc4)cc3c2c1` (centres unmarked) [Compound 22, N,N-Dimethyl-4-[2-[8-(1-hydroxy)-2-phenylethyl]dibenzofuran-2-yl]-4-hydroxybutanamide]: the values for the inhibition at 30 µM in test [1] and in test [2] were 100% and 1%, respectively.

For `O=C(CCC(O)c1ccc2oc3ccc(C(O)Cc4ccccc4)cc3c2c1)N1CCCC1` (centres unmarked) [Compound 23, N-[4-[2-[8-(1-Hydroxy)-2-phenylethyl]dibenzofuranyl]-4-hydroxybutanoyl]pyrrolidine], the inhibition at 30 µM in test [1] came to 62%; in test [2] it was 10%.

Consider `O=C(O)CCCC(O)c1ccc2oc3ccc(C(O)Cc4ccccc4)cc3c2c1` (centres unmarked) [Compound 40, Sodium 5-[2-[8-(1-Hydroxy)-2-phenylethyl]dibenzofuranyl]-5-hydroxypentanoate], for which the inhibition at 30 µM was 38% in test [1] and 5% in test [2].

As to `CN(C)C(=O)CCCC(O)c1ccc2oc3ccc(C(O)Cc4ccccc4)cc3c2c1` (centres unmarked) [Compound 41, N,N-Dimethyl-5-[2-[8-(1-hydroxy)-2-phenylethyl]dibenzofuranyl}-5-hydroxypentanamide], the values for the inhibition at 30 µM in test [1] and in test [2] were 57% and 2%, respectively. For the same compound, the IC50 in test [1] came out at 9 µM.

`O=C(CCCC(O)c1ccc2oc3ccc(C(O)Cc4ccccc4)cc3c2c1)N1CCCC1` (centres unmarked) [Compound 42, N-[5-[2-[8-(1-Hydroxy)-2-phenylethyl]dibenzofuranyl]-5 hydroxypentanoyl]pyrrolidine]: in test [1], the inhibition at 30 µM came to 100% and the IC50 is 19 µM. Further, the inhibition at 30 µM in test [2] came out at 12%.
